These results are taken from US7314864B1, “Humanin, a polypeptide suppressing neuronal death” (Keio University, priority 1999, dated 2008).

For series [1], the system named is F11 cells transfected with V642I APP cDNA. As to the kind of experiment: V642I APP-induced F11 cell death, trypan blue exclusion assay. It is filed as cell-based. How it is done:
(§1) F11 cells (Platika, D. et al. (1985) Proc. Natl. Acad. Sci. U.S.A. 82, 3499-3503; Yamatsuji, T. et al. (1996) Science 272, 1349-1352) were cultured in HamF-12 media containing 18% fetal bovine serum (FBS) and antibiotics. 7×10^4/well of F11 cells were seeded into a 6-well plate; cultured in HamF-12 containing 18% FBS for 12 to 16 hours; transfected 3 hours with plasmids encoding FAD genes and plasmids encoding HN (pHN, and such) by lipofection in the absence of serum (1 μg of FAD cDNA expression plasmid, 1 μg of HN cDNA expression plasmid, 4 μl of LipofectAMINE, 8 μl of Plus reagent); and then, were cultured for 2 hours in HamF-12 media containing 18% FBS. Then, culture media were exchanged with HamF-12 media containing 10% FBS; and the cells were cultured for additional 67 hours. 72 hours after transfection, cell death was measured by trypan blue exclusion assay. Experiments using synthetic HN polypeptides were conducted as follows: F11 cells (at 7×10^4/well in a 6-well plate) were transfected 3 hours with FAD genes in the absence of serum, as mentioned above; after cultivation for 2 hours in HamF-12 media containing 18% FBS, the cells were cultured for 67 hours in HamF-12 media containing 10% FBS with various concentrations of HN polypeptides; and cell death was measured by trypan blue exclusion assay. ALS-associated mutant cDNAs of SOD1 were also similarly transfected, and examined for their neurotoxicity.
(§2) Trypan blue exclusion assay was performed as follows. Without prewashing, the cells were suspended with gentle pipetting into a serum-free media. 50 μl of 0.4% trypan blue solution (Sigma, Cat. #T-8154) were added (final concentration of 0.08%) to 200 μl cell suspension, and the suspension was mixed at room temperature. Within 3 minutes of the trypan blue solution addition, stained cells were counted. Cell mortality was determined [100-cell survival rate (%)] based on the stained cell count. LDH assay was performed using a kit (LDH-Cytotoxic Test; Wako Pure Chemical Industries, Cat. #299-50601) by sampling 6 μl of media in which neurons were cultured. Calcein staining was performed as described in literature (Bozyczko-Coyne, D. et al. (1993) Journal of Neuroscience Methods 50, 205-216). Specifically, 6 μM Calcein-AM (3′, 6′-Di-(O-acetyl)-2′-7′-bis[N,N-bis(carboxymethyl)aminomethyl]fluorescein, tetraacetoxymethyl ester; Dojindo, Cat. #349-07201) was added to the neurons; and 30 minutes or longer after Calcein-AM treatment, fluorescence (ex=490 nm, em=515 nm) was observed by fluorescence microscopy, and measured by a spectrometer. Specific fluorescence was calculated by subtracting basal fluorescence from total fluorescence. Basal fluorescence was assigned to be the value calculated from linear trypan blue positivity-fluorescence intensity relationship, corresponding to 100% trypan blue positivity.

Series [2] concerns primary cultured cortical neurons treated with Aβ1-43. Description: Aβ1-43-induced cell damage of primary cultured cortical neurons, LDH release. Format: cell-based, mouse. How it is done: Primary culture of mouse cortical neurons was performed in poly-D-lysine-coated 24-well plates (Sumitomo Bakelite) in the absence of serum and in the presence of N2 supplement, as described in literature (Ecksioglu, Y. Z. et al. (1994) Brain Res. 644, 282-90). The purity of neurons prepared according to the method was >98%. The prepared neurons (1.25×10^5/well, 250 μl media/well) were preincubated in the absence or presence of 10 nM or 10 μM sHN polypeptides for 16 hours; and were treated with 25 μM Aβ1-43 in the absence or presence of sHN polypeptides at the same concentrations for 24 to 72 hours. […]
(§3) Trypan blue exclusion assay was performed as follows. […] Within 3 minutes of the trypan blue solution addition, stained cells were counted. Cell mortality was determined [100-cell survival rate (%)] based on the stained cell count. […] Specifically, 6 μM Calcein-AM (3′, 6′-Di-(O-acetyl)-2′-7′-bis[N,N-bis(carboxymethyl)aminomethyl]fluorescein, tetraacetoxymethyl ester; Dojindo, Cat. #349-07201) was added to the neurons; and 30 minutes or longer after Calcein-AM treatment, fluorescence (ex=490 nm, em=515 nm) was observed by fluorescence microscopy, and measured by a spectrometer. Specific fluorescence was calculated by subtracting basal fluorescence from total fluorescence. […]

In series [3] the test system is F11 cells transfected with FAD genes (V642I APP, NL-APP, M146L PS-1, N141I PS-2). Description: FAD gene-induced F11 cell death, trypan blue exclusion assay. It is filed as cell-based, rat/mouse hybrid. How it is done:
as §1, §2

Series [4] has as its system F11/EcR cells transfected with ecdysone-inducible FAD gene plasmid. Description: Ecdysone-induced FAD gene expression F11/EcR cell death, trypan blue exclusion assay. Format: cell-based. The following applies: 1 μM; NL-APP, V642I APP, M146L PS-1, N141I PS-2; ecdysone 72 hours. How it is done:
F11/EcR cell experiment using ecdysone was conducted as follows: F11/EcR cells were seeded at 7×10^4/well into a 6-well plate; cultured for 12 to 16 hours in HamF-12 media containing 18% FBS; and were similarly transfected in the absence of serum for 3 hours with 1 μg of ecdysone-inducible plasmid alone, or with 1 μg of HN-encoding plasmid, as mentioned above. After culturing for 12 to 16 hours in HamF-12 media containing 18% FBS, the cells were cultured for 2 hours in HamF-12 media containing 10% FBS, then ecdysone (Ponasterone) was added to the media (final concentration of 40 μM). Cell death was measured 72 hours after ecdysone treatment. […] Cell death was measured by trypan blue exclusion assay after 72 hours from the ecdysone treatment. […]
Trypan blue exclusion assay was performed as follows. […] Within 3 minutes of the trypan blue solution addition, stained cells were counted. Cell mortality was determined [100-cell survival rate (%)] based on the stained cell count. […] Specifically, 6 μM Calcein-AM (3′, 6′-Di-(O-acetyl)-2′-7′-bis[N,N-bis(carboxymethyl)aminomethyl]fluorescein, tetraacetoxymethyl ester; Dojindo, Cat. #349-07201) was added to the neurons; and 30 minutes or longer after Calcein-AM treatment, fluorescence (ex=490 nm, em=515 nm) was observed by fluorescence microscopy, and measured by a spectrometer. […]

The test system of series [5] is primary cultured cortical neurons treated with Aβ1-43. As to the kind of experiment: Aβ1-43-induced cell death of primary cultured cortical neurons, trypan blue exclusion assay. It is filed as cell-based. Conditions: 25 μM Aβ1-43, confirmed by LDH release and Calcein staining. How it is done: Primary culture of mouse cortical neurons was performed in poly-D-lysine-coated 24-well plates (Sumitomo Bakelite) in the absence of serum and in the presence of N2 supplement, as described in literature (Ecksioglu, Y. Z. et al. (1994) Brain Res. 644, 282-90). The purity of neurons prepared according to the method was >98%. The prepared neurons (1.25×10^5/well, 250 μl media/well) were preincubated in the absence or presence of 10 nM or 10 μM sHN polypeptides for 16 hours; and were treated with 25 μM Aβ1-43 in the absence or presence of sHN polypeptides at the same concentrations for 24 to 72 hours. Since primary cultured neurons are damaged even by temporary dryness during medium exchange, treatment of the cells by Aβ1-43 was performed as follows. First, half of the volume of the old medium (125 μl) was discarded. Then, 125 μl of pre-warmed fresh medium containing 50 μM Aβ1-43 and sHN with a concentration indicated above were added to the culture.
as §2

Series [6] concerns primary cultured neurons treated with etoposide. As to the kind of experiment: Etoposide toxicity on primary cultured neurons. Format: cell-based, mouse. The following applies: 20 μM etoposide; 10 μM polypeptide. How it is done:
25 μM Aβ1-43 was added to primary cultured cortical neurons in the presence (at indicated concentrations) or absence of sHN, sHNG, or sHNA. Addition of HN polypeptides was performed similarly to that described in FIG. 14. 72 hours after the initiation of Aβ treatment, cell death was measured by trypan blue exclusion assay. Primary cultured neurons treated similarly for 72 hours with 20 μM etoposide in the presence or absence of 10 μM sHN or HN derivatives were used as the positive controls in these experiments. Similar experiments were performed at least three times, and reproducible results were obtained. Mean ±S.D. values of three independent experiments are indicated in the graphs. […]
as §3

Series [7] concerns F11/EcR cells transfected with ecdysone-inducible Q79 plasmid. Description: Polyglutamine Q79-induced F11/EcR cell death (ecdysone-inducible), trypan blue exclusion assay. It is filed as cell-based. Conditions: 1 μM polypeptide, 72 hours. How it is done: F11/EcR cell experiment using ecdysone was conducted as follows: F11/EcR cells were seeded at 7×10^4/well into a 6-well plate; cultured for 12 to 16 hours in HamF-12 media containing 18% FBS; and were similarly transfected in the absence of serum for 3 hours with 1 μg of ecdysone-inducible plasmid alone, or with 1 μg of HN-encoding plasmid, as mentioned above. After culturing for 12 to 16 hours in HamF-12 media containing 18% FBS, the cells were cultured for 2 hours in HamF-12 media containing 10% FBS, then ecdysone (Ponasterone) was added to the media (final concentration of 40 μM). Cell death was measured 72 hours after ecdysone treatment. Experiments using synthetic HN polypeptides were conducted as follows: cells were similarly transfected for 3 hours with FAD genes in the absence of serum; cultured for 12 to 16 hours in HamF-12 media containing 18% FBS; cultured for 2 hours in HamF-12 media containing 10% FBS and various concentrations of HN polypeptide; and then, 40 μM Ponasterone was added to the media. Cell death was measured by trypan blue exclusion assay after 72 hours from the ecdysone treatment. HD/SCA-associated Q79 cDNAs were also similarly transfected, and the neurotoxicity was tested.
Trypan blue exclusion assay was performed as follows. […] Within 3 minutes of the trypan blue solution addition, stained cells were counted. Cell mortality was determined [100-cell survival rate (%)] based on the stained cell count. […] Specifically, 6 μM Calcein-AM (3′, 6′-Di-(O-acetyl)-2′-7′-bis[N,N-bis(carboxymethyl)aminomethyl]fluorescein, tetraacetoxymethyl ester; Dojindo, Cat. #349-07201) was added to the neurons; and 30 minutes or longer after Calcein-AM treatment, fluorescence (ex=490 nm, em=515 nm) was observed by fluorescence microscopy, and measured by a spectrometer. Specific fluorescence was calculated by subtracting basal fluorescence from total fluorescence. Basal fluorescence was assigned to be the value calculated from linear trypan blue positivity-fluorescence intensity relationship, corresponding to 100% trypan blue positivity.

The test system of series [8] is F11 cells transfected with SOD1 mutants (A4T, G85R, G93A). As to the kind of experiment: ALS-associated SOD1 mutant-induced F11 cell death, trypan blue exclusion assay. Format: cell-based, rat/mouse hybrid. The following applies: 100 μM polypeptide. How it is done: as §1, §3
Series [9] concerns primary cultured cortical neurons treated with Aβ1-43. As to the kind of experiment: Aβ1-43-induced cell death of primary cultured cortical neurons, trypan blue exclusion assay. Format: cell-based. The following applies: 100 ng/ml.

Take `CC[C@H](C)[C@H](NC(=O)[C@H](CCC(=O)O)NC(=O)[C@H](CO)NC(=O)[C@@H](NC(=O)[C@H](CC(C)C)NC(=O)[C@H](CC(C)C)NC(=O)[C@H](CC(C)C)NC(=O)[C@H](CC(C)C)NC(=O)[C@H](CS)NC(=O)[C@H](CO)NC(=O)[C@H](Cc1ccccc1)NC(=O)CNC(=O)[C@H](CCCNC(=N)N)NC(=O)[C@@H]1CCCN1C(=O)[C@H](C)NC(=O)[C@@H](N)CCSC)[C@@H](C)O)C(=O)N[C@@H](CC(=O)O)C(=O)N[C@@H](CC(C)C)C(=O)N1CCC[C@H]1C(=O)N[C@H](C(=O)N[C@@H](CCCCN)C(=O)N[C@@H](CCCNC(=N)N)C(=O)N[C@@H](CCCNC(=N)N)C(=O)N[C@@H](C)C(=O)O)C(C)C` [sHN]: the “suppression of V642I APP-induced cell death” value in [1] (10 nM polypeptide) is recorded as “extremely weak suppression”; in series [1] (10 μM polypeptide) it was “dramatically suppressed”. Besides, the 50% inhibitory concentration (IC50) in [1] (72 h) is roughly 100 nM. In addition, the “cell mortality (%)” value in series [1] (V642I APP cDNA, treated with 10 μM sHN polypeptides, 72 hours, mean ±S.D.) was 14.4 ± 1.2 %. Also, the “effect on cell damage (LDH released) by Aβ1-43” value in series [2] (25 μM Aβ1-43, 10 μM polypeptide) is given as “completely restored to a level observed under basal conditions”. The “concentration blocking neuronal death induced by the FAD genes” value in [3] (NL-APP, M146L PS-1, N141I PS-2) was 1 µM. Moreover, the “extracellular concentration at which neuronal death is suppressed” value in series [3] (chemically synthesized polypeptide) is no less than 10 nM. Besides, in series [3] (four types of AD genes, listed as Humanin), the “concentration of maximal (saturation) suppression of neuronal death” value was “about 10 μM”. Besides, the “effect on cell death by ecdysone-induced FAD genes, synthetic polypeptide” value in series [4] is “significant suppressive effect”. Besides, the results for the “effect on Aβ1-43-induced cell death” value in series [5] (10 nM polypeptide) and in series [5] (10 μM polypeptide) were “did not show any effect” and “completely restored to a level observed under basal conditions”, respectively. The “effect on toxic effect of etoposide” value in series [6] was “could not prevent”. For the same molecule, the “effect on Q79-induced cell death, synthetic polypeptide” value in series [7] was “Extensive cell death”. In addition, in series [8], the “effect on SOD1 mutant-induced cell death, synthetic polypeptide” value is “couldn't be suppressed”.

In the case of “NGF: NGF, tested at 100 ng/ml against Aβ-induced neuronal death [reference compound]”, the “effect on increased LDH release induced by Aβ” value in [2] (100 ng/ml) is given as “did not show effects”. Further, the “effect on cell death of neurons induced by Aβ” value in series [9] was “did not show effects”.

As usually defined, the IC50 is the concentration that inhibits the measured activity by half. A higher IC50 goes with lower potency.
